Data reported in US10238630B2, “Use of eribulin and poly (ADP ribose) polymerase (PARP) inhibitors as combination therapy for the treatment of cancer” (Eisai R&D Management Co., Ltd., priority 2014, dated 2019).
Entries after “also recorded” stand apart in the source; their conditions may differ. Where a name gives a salt, the structure may show the parent alone.

System: MDA-MB-468 human breast cancer xenografts
Test: Antitumor activity against subcutaneous MDA-MB-468 human breast cancer xenografts in athymic mice
Assay type: in vivo
Experimental: MDA-MB-468 human triple negative breast cancer cells are wild type for BRCA1 and 2 and PTEN null. Cells were maintained in monolayer cultures in RPMI-1640 growth medium supplemented with 10% fetal bovine serum at 37° C. in a 5% CO2 humidified incubator. On the day of inoculation, cells were harvested by trypsinization, washed, and resuspended in ice-cold PBS. Female immunodeficient athymic mice were inoculated subcutaneously near the right axillary area with MDA-MB-468 cells (5×10^6) in a 1:1 ratio (50 μL each) with matrigel in a volume of 0.1 mL in phosphate buffered saline using a 26-gauge needle. A total of 60 mice, approximately 8 weeks old were implanted with MDA-MB-468 cells.
E7449 and E7389 were evaluated as single agents and in combination for antitumor activity against MDA-MB-468 human breast cancer xenografts in athymic mice. The experiment consisted of a vehicle control group, an E7449 single agent group, two groups treated with single agent E7389 and 2 combination drug-treated groups (Table 4). Sixty mice were inoculated with MDA-MB-468 cells. On day 7 following implantation, tumor volumes were measured and mice were randomized into the 6 treatment groups based on tumor volume (average of 180 mm^3). Following randomization drug treatment was initiated. Each group was composed of 6 mice for a total of 36 mice on the first day of treatment. E7449 was formulated in 0.5% methyl cellulose and orally administered daily at 100 mg/kg based on body weight at 0.1 mL per 10 g. E7449 was administered once daily for 28 days (starting on Day 7) as a single agent or in combination. E7389 was formulated in saline and was intravenously administered once every 4 days, 3 times (Day 7, 11, and 15) at a dosage of 0.1 or 0.4 mg/kg as single agent or in combination with E7449, based on body weight at 0.1 mL per 10 g. The control group was treated with oral vehicle (0.5% methyl cellulose in water) daily and intravenous vehicle (saline) once every 4 days, 3 times. E7449 or vehicle was administered first and when dosing of all animals was complete, E7389 was administered to animals receiving the combination.
Drug treatment was initiated 7 days post tumor implantation and continued for 28 days. Animals whose tumor measurement reached […] at the longest axis or whose tumor became ulcerated were euthanized prior to study termination. The study was terminated on Day 52. Statistical analysis was performed on Days 35 and 52.
Statistical analysis of the vehicle group (A) versus the drug-treated groups (B, C, D, E, and F) was performed by a one way analysis of variance (ANOVA) for tumor volume followed by Dunnett's multiple comparisons test. The analysis was performed at vehicle endpoint on Day 35 of the study. […]

C=C1C[C@@H]2CC[C@@]34C[C@H]5OC6[C@@H](O[C@H]7CC[C@H](CC(=O)C[C@@H]8[C@@H](OC)[C@@H](C[C@H](O)CN)O[C@H]8C[C@H]8O[C@@H](CC[C@@H]1O2)C[C@@H](C)C8=C)O[C@@H]7[C@@H]6O3)[C@H]5O4 [E7389, 11, 15:18,21:24,28-triepoxy-7,9-ethano-12,15-methano-9H,15H-furo[3,2-i]furo[2′,3′:5,6]pyrano[4,3-b] [1,4]dioxacyclopentacosin-5(4H)-one, 2-[(2S)-3-amino-2-hydroxypropyl]hexacosahydro-3-methoxy-26-methyl-20,27-bis(methylene)-, (2R,3R,3aS,7R,8aS,9S,10aR,11S,12R,13aR,13bS,15S,18S,21S,24S,26R,28R,29aS)-methanesulfonate (salt)]
tumor re-growth following treatment (E7389 0.1 mg/kg IV Q4Dx3, single agent): began re-growing within days of final E7389 dose
tumor re-growth following treatment (E7389 0.4 mg/kg IV Q4Dx3, single agent, up to Day 52): became tumor-free with no palpable tumors observed up to the date of study termination
antitumor effect (tumor volume) (E7389 0.1 and 0.4 mg/kg IV Q4Dx3, single agent): Tumor regression

O=c1[nH]nc2c3c(cccc13)N=C(CN1Cc3ccccc3C1)N2 [E7449]
antitumor effect (tumor volume) (E7449 100 mg/kg PO QDx28, single agent, 100 mg/kg): did not significantly inhibit tumor growth; also recorded: No antitumor activity
